Target: T1, AsDMS (wild-type drimenol synthase) (Aquimarina spongiae, UniProt A0A1M6CXF0)
T1 construct: gene SAMN04488508_102320; wild-type, bifunctional N-terminal HAD and C-terminal TCbeta domains; dimer by gel filtration
Assay: steady-state kinetics of dephosphorylation
Format: biochemical
Conditions: HAD domain phosphatase site, Mg2+-dependent

T1 sequence (A0A1M6CXF0 entry or part of it): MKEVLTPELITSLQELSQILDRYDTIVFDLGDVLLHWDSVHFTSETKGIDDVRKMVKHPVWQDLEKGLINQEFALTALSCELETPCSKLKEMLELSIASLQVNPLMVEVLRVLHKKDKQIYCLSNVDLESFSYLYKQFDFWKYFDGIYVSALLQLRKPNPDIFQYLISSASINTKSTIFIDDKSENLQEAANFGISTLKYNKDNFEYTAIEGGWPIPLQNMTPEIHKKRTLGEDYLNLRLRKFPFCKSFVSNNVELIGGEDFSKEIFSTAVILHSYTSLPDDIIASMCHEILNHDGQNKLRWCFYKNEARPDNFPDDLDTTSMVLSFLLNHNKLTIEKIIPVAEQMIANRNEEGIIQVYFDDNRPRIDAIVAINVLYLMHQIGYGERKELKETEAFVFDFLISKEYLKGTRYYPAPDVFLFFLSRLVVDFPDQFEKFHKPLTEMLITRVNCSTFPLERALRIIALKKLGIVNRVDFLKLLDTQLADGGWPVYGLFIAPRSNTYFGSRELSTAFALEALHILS

Km: 5.81 ± 0.81 µM
SMILES: CC1=CC[C@H]2C(C)(C)CCC[C@]2(C)[C@H]1COP(=O)(O)O [compound 3, drimenyl monophosphate]

Source: publication PMC12365925, “Structural insights into a bacterial terpene cyclase fused with haloacid Dehalogenase-like phosphatase” (Chemical Science, 2025)
